Measured values reported in patent US20120225852A1, “USE OF STEROID COMPOUNDS” (priority 2009, published 2012).

Key:
[1] = test system: Lymph node (LN) cells from unprimed DO11.10 TCR Tg mice; test: OVA-stimulated lymph node cell culture, T cell proliferation; format: cell-based; details: for proliferation of the T cells that respond to the antigen: LN cells stimulated with OVA, vs control RPMI, FIG. 1; for effect on T cell responses in general: overall conclusion of Example 1 (FIGS. 1-4)
Naive CD4+ T cells = Naive CD4+ T cells under Th17 cell polarizing conditions; format: cell-based; details: for number of CD4+ IL-10-secreting T cells: among Th17 differentiating cells, 4 days, FIG. 37; for number of CD4+ IL-17-secreting T cells: and rIL-6, 4 days, vs RPMI, FIG. 36
naïve CD4+ T cells = test: Naive CD4+ T cells under Treg cell generating conditions; format: cell-based; details: for proliferation: Treg cell generating conditions, 5 days, FIG. 39; for number of Foxp3+ Treg cells: rIL-2, with or even without rTGF-β1, 5 days, FIG. 38
[2] = test system: ongoing EAE in recipient mice; test: Adoptive transfer of DLN cells from treated EAE donors into recipients with ongoing EAE; format: in vivo
From the text: The donor DLN cells were obtained on day 17, which is the peak of disease for control mice. This protection was observed until day 28-30 when the mice were euthanized.

[3] = test system: EAE in C57BL/6 Rag−/− recipients; test: Adoptive transfer of CD4+ T cells from treated EAE donors into C57BL/6 Rag-/- recipients; format: in vivo, C57BL/6 Rag−/− mice
[4] = test system: ongoing EAE in recipient mice; test: Adoptive transfer of CD4+ T cells from treated EAE donors into recipients with ongoing EAE; format: in vivo
EAE = EAE after cessation of 15 days of treatment, 45 additional days of monitoring; format: in vivo, C57BL/6 mice
From the text: The mice continued to be monitored daily for clinical signs of EAE for 45 additional days thereafter.

[5] = test system: response to OVA in EAE-induced mice; test: EAE mice treated for 15 days, then immunized with OVA/CFA; format: in vivo, C57BL/6 mice
Description: Treatment stopped and mice were then injected with OVA/CFA (Complete Freund's Adjuvant).
Instead, the response to a new antigen that the mice are exposed to is enhanced.

[6] = mice; cited from earlier work
[7] = test system: collagen-induced arthritis (CIA); details: cited from earlier work
[8] = mitogen-induced proliferation, delayed-type hypersensitivity, mixed lymphocyte reaction; cited from earlier work
[9] = oral, 50 mg/kg, beginning at onset of disease

## C[C@]12CC[C@H](O)CC1=CC[C@@H]1[C@@H]2CC[C@@]2(C)[C@H]1CC[C@@]21CO1 [BNN-50, 17β-spiro-[5-androsten-17,2′-oxiran]-3β-ol]
[1]
  proliferation of the T cells that respond to the antigen: significantly decreased
  effect on T cell responses in general: immunosuppressive effect
Naive CD4+ T cells
  number of CD4+ IL-10-secreting T cells: significant increase
  number of CD4+ IL-17-secreting T cells: increase
naïve CD4+ T cells
  proliferation: increased
  number of Foxp3+ Treg cells: significant increase

## C[C@]12CC[C@H](O)CC1=CC[C@@H]1[C@@H]2CC[C@@]2(C)[C@H]1CC[C@@]21OC1CO (stereo partly drawn) [BNN-93, 3β,21-dihydroxy-17α,20-epoxy-5-pregnene]
[2]; DLN cell transfer, vs PBS-treated donors, FIG. 24
  recovery of recipients: rapid recovery
[2]; DLN cell transfer, vs PBS-treated donors, FIG. 25
  mean maximum disease score: significant reduction
[2]; DLN cells of donors treated days 12-17, vs DLN cells from PBS-treated donors, FIG. 24
  EAE development in recipients: confer suppression
[2]; DLN cells of recipients, FIG. 26a
  ex vivo proliferation to MOG35-55: significantly decreased
[2]; DLN cells of recipients, FIG. 26b
  levels of supernatant IFN-γ: decreased levels
[2]; DLN cells of recipients, FIG. 26c
  levels of supernatant IL-17: decreased levels
[2]; draining lymph nodes of recipients, FIG. 27a
  recruitment of CD11c+ dendritic cells: substantially decreased
[2]; draining lymph nodes of recipients, FIG. 27b
  recruitment of IL-17 secreting T cells: substantially decreased
[2]; draining lymph nodes of recipients, FIG. 27c
  recruitment of CD4+ Foxp3+ regulatory T cells: increased
[1]
  proliferation of the T cells that respond to the antigen: significantly decreased
  effect on T cell responses in general: immunosuppressive effect
[3]; DLN cells of Rag−/− recipients, FIG. 33a
  ex vivo proliferation to MOG35-55: substantially decreased
[3]; DLN cells of Rag−/− recipients, FIG. 33b
  production of IFN-γ: decreased production
[3]; DLN cells of Rag−/− recipients, FIG. 33c
  production of IL-17: decreased production
[3]; after pertussis toxin injections, FIGS. 31 and 32
  EAE scores induced in recipients: no disease
Naive CD4+ T cells
  number of CD4+ IL-10-secreting T cells: significant increase
  number of CD4+ IL-17-secreting T cells: increase
[4]; CD4+ T cell transfer into recipients with ongoing EAE, FIGS. 28 and 29
  mean maximum EAE score: significant decrease
[4]; DLN cells and splenocytes of recipients, FIG. 30
  proliferation to MOG35-55 ex vivo: significantly decreased
naïve CD4+ T cells
  proliferation: increased
  number of Foxp3+ Treg cells: significant increase
EAE; treated 15 days from around day 13, monitored 45 additional days, FIGS. 34 and 35
  protection from EAE development after cessation of treatment: remained protected
EAE; treated 15 days, monitored 45 additional days, vs control mice
  disease score after cessation of treatment: remained unchanged
[5]; after OVA/CFA immunization
  production of IFN-γ: increased
[5]; after OVA/CFA immunization, FIG. 40
  T cell response to OVA ex vivo (3H-Thymidine incorporation): substantially increased
[5]; in comparison to control mice
  EAE phenotype after end of treatment and OVA/CFA injection: stable phenotype without any deterioration
[5]; treated 15 days from shortly after disease onset, then OVA/CFA
  protection from EAE: clearly protected

## C[C@]12CC[C@H](O)CC1=CCC1C2CC[C@@]2(C)C1CC[C@]21O[C@H]1CO (stereo partly drawn) [BNN-124, (20S)-3β,21-dihydroxy-17β,20-epoxy-5-pregnene]
[1]
  proliferation of the T cells that respond to the antigen: significantly decreased
  effect on T cell responses in general: immunosuppressive effect
Naive CD4+ T cells
  number of CD4+ IL-10-secreting T cells: significant increase
  number of CD4+ IL-17-secreting T cells: increase
naïve CD4+ T cells
  proliferation: increased
  number of Foxp3+ Treg cells: significant increase

## C#C[C@]1(O)CC[C@H]2[C@@H]3[C@@H](O)C=C4C[C@@H](O)CC[C@]4(C)[C@H]3CC[C@@]21C [HE3286]
[6]
  oral bioavailability: up to 25%
[7]; associated with benefit
  numbers and function of CD4+CD25+FOXp3+CD127-regulatory T cells (T reg): increases
[7]; [9]
  CIA peak scores: significantly decreased
  daily severity of arthritis scores: significantly decreased
[8]
  immune suppression in classical models: not found to be immune suppressive
